Data set [1] addresses T1, LiAcs1 (Leishmania infantum, UniProt A4I093).
T1 sequence (A4I093 1-705): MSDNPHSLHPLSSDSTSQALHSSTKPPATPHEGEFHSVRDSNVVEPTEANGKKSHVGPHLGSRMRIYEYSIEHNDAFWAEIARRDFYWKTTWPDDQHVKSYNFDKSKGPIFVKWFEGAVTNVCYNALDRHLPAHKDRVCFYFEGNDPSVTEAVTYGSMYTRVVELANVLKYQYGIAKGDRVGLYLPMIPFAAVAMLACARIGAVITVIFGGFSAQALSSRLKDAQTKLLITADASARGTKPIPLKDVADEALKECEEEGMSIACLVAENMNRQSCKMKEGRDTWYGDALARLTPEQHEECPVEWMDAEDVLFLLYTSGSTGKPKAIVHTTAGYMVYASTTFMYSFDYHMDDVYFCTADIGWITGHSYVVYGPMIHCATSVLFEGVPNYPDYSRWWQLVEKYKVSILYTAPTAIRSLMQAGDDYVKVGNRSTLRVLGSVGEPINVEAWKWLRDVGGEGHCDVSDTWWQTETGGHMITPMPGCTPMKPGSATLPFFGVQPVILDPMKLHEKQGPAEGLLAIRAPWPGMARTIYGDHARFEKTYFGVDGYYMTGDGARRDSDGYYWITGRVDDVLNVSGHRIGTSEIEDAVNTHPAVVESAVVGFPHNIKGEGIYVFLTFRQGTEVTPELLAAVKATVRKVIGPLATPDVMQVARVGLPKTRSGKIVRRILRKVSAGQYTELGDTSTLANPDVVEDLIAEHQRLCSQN
The data set is described as follows: EnzChek pyrophosphate-release coupled assay. Format: biochemical.

Data set [2] has as its target T2, CnAcs1 (Cryptococcus neoformans, UniProt J9VFT1).
T2 sequence (J9VFT1 1-680): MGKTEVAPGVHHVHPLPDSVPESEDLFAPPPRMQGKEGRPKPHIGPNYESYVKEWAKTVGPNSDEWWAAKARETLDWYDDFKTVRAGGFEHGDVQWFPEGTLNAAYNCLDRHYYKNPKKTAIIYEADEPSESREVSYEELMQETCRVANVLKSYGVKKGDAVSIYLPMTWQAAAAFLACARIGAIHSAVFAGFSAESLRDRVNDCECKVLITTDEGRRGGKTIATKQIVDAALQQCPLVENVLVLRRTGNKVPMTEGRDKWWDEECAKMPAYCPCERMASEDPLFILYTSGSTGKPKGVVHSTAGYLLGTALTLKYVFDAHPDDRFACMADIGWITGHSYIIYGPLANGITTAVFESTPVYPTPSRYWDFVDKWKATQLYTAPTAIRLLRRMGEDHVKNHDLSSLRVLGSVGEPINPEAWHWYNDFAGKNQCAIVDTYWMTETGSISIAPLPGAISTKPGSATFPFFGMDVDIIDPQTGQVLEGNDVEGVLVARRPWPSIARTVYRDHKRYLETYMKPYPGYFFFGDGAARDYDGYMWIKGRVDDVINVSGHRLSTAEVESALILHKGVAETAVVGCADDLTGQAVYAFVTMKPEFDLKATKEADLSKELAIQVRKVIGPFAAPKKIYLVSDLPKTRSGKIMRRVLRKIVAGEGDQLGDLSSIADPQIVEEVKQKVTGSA
Description: biochemical.

Data set [3] has as its target T3, CnKbc1 (Cryptococcus neoformans, UniProt J9VT24).
T3 sequence (J9VT24 1-696): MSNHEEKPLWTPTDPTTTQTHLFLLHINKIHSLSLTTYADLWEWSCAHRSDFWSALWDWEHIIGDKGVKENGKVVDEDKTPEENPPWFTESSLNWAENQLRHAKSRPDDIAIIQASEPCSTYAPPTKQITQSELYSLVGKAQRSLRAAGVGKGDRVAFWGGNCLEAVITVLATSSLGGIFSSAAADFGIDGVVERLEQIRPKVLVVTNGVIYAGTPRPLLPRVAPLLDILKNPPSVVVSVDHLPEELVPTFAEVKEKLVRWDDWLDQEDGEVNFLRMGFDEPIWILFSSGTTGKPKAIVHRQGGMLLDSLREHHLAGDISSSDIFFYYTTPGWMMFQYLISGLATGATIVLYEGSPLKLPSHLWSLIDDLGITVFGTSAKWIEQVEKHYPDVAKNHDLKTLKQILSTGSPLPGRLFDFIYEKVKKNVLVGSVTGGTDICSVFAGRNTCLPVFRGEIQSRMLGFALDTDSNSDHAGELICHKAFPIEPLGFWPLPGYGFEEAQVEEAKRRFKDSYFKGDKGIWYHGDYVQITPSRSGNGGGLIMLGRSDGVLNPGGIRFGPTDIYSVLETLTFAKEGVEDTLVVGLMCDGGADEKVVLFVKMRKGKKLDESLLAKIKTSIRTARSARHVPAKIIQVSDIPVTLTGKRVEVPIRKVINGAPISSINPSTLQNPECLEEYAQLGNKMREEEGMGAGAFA
The data set is described as follows: biochemical.

For data set [4], the target named is T3, CnKbc1. Description: EnzChek pyrophosphate-release coupled assay. Type of data set: biochemical.
In data set [5] the target is T2, CnAcs1. Description: EnzChek pyrophosphate-release coupled assay. Type of data set: biochemical.
Data set [6] deals with T1, LiAcs1. The data set is described as follows: biochemical.
In data set [7] the target is T1, LiAcs1. The data set is described as follows: biochemical. This is another data set of the same source.
Data set [8] deals with T3, CnKbc1. Description: biochemical. This is another data set of the same source.
Data set [9] addresses T2, CnAcs1. The data set is described as follows: biochemical. This is another data set of the same source.
Substrate in data set [10]: CC(=O)O
The data set is described as follows: EnzChek pyrophosphate-release coupled assay. Format: biochemical, Leishmania infantum. The note with it: ATP and CoA as co-substrates, 4 mM MgCl2, 37 °C.

Substrate in data set [11]: CC(=O)CC(=O)O
The data set is described as follows: EnzChek pyrophosphate-release coupled assay. The conditions noted are these: ATP and CoA as co-substrates, 4 mM MgCl2, 37 °C. Type of data set: biochemical, Leishmania infantum.

This is an account of results in article PMC11584562 (The Journal of Biological Chemistry, 2024).

Usually IC50 stands for the concentration that inhibits the measured activity by half. A low value points to higher potency. `COP(=O)(O)OC[C@H]1O[C@@H](n2cnc3c(N)ncnc32)[C@H](O)[C@@H]1O` [i, Methyl-AMP]: the figures for the IC50 against LiAcs1 [1], on CnAcs1 [2] and at CnKbc1 [3] were 69.9 µM, above 100 µM and above 100 µM, respectively.

In the case of `CCOP(=O)(O)OC[C@H]1O[C@@H](n2cnc3c(N)ncnc32)[C@H](O)[C@@H]1O` [ii, Ethyl-AMP], the figures for the IC50 against CnKbc1 [4], on LiAcs1 [1] and against CnAcs1 [5] were above 100 µM, 2 µM and 8 µM, respectively.

As to `Nc1ncnc2c1ncn2[C@@H]1O[C@H](COP(=O)(O)OC2CC2)[C@@H](O)[C@H]1O` [iii, Cyclopropyl-AMP], the IC50 against LiAcs1 [1] was 2.2 µM; at CnKbc1 [3], above 100 µM; at CnAcs1 [5], 8.7 µM.

As to `CCCOP(=O)(O)OC[C@H]1O[C@@H](n2cnc3c(N)ncnc32)[C@H](O)[C@@H]1O` [iv, Propyl-AMP], the IC50 at LiAcs1 [1] was 13.5 µM; on CnKbc1 [3] it was above 100 µM; against CnAcs1 [5], 21.1 µM.

In the case of `CC(C)OP(=O)(O)OC[C@H]1O[C@@H](n2cnc3c(N)ncnc32)[C@H](O)[C@@H]1O` [v, Isopropyl-AMP], the half-maximal inhibitory concentration (IC50) at LiAcs1 [1] was 6.7 µM; against CnKbc1 [3] it was above 100 µM; against CnAcs1 [5], 25.3 µM.

`C=CCOP(=O)(O)OC[C@H]1O[C@@H](n2cnc3c(N)ncnc32)[C@H](O)[C@@H]1O` [vi, Allyl-AMP]: the figures for the IC50 on LiAcs1 [1], against CnKbc1 [3] and on CnAcs1 [5] were 12.5 µM, above 100 µM and 41 µM, respectively.

On to `C#CCOP(=O)(O)OC[C@H]1O[C@@H](n2cnc3c(N)ncnc32)[C@H](O)[C@@H]1O` [vii, Propargyl-AMP], for which the IC50 on LiAcs1 [1] was 10.2 µM; against CnKbc1 [3], above 100 µM; on CnAcs1 [5], 55.1 µM.

`CCCCOP(=O)(O)OC[C@H]1O[C@@H](n2cnc3c(N)ncnc32)[C@H](O)[C@@H]1O` [viii, Butyl-AMP]: the IC50 at CnKbc1 [4] is 7.8 µM; on LiAcs1 [6], above 100 µM; at CnAcs1 [2], above 100 µM.

Turning to `Nc1ncnc2c1ncn2[C@@H]1O[C@H](COP(=O)(O)OC2CCCC2)[C@@H](O)[C@H]1O` [x, Cyclopentyl-AMP], the IC50 on LiAcs1 [7], against CnKbc1 [8] and on CnAcs1 [9] was above 100 µM throughout.

B1: LiAcs1 (Leishmania infantum) (protein)
chain: T1 sequence (A4I093 1-705)
B1: the Km is reported as 61 (95% CI 45, 83) μM in data set [10] and 88 (95% CI 71, 110) μM in [11].
